The test deals with T1, CsF3′H (Camellia sinensis, UniProt A0A0S2LLA9).
T1 construct: microsomes of Saccharomyces cerevisiae WAT11, which co-expresses an Arabidopsis thaliana P450 reductase; ORF amplified with its own stop codon, no tag stated
Briefly: HPLC product formation with recombinant yeast microsomes. The format is biochemical. Particulars: 1.0 mM NADPH, 100 mM sodium phosphate pH 7.0, 30 °C, 30 min. The text has this: HPLC product formation with recombinant yeast microsomes on CsF3′H

Read-outs that look alike come from different tables or passages of the source.

T1 sequence (A0A0S2LLA9 entry or part of it): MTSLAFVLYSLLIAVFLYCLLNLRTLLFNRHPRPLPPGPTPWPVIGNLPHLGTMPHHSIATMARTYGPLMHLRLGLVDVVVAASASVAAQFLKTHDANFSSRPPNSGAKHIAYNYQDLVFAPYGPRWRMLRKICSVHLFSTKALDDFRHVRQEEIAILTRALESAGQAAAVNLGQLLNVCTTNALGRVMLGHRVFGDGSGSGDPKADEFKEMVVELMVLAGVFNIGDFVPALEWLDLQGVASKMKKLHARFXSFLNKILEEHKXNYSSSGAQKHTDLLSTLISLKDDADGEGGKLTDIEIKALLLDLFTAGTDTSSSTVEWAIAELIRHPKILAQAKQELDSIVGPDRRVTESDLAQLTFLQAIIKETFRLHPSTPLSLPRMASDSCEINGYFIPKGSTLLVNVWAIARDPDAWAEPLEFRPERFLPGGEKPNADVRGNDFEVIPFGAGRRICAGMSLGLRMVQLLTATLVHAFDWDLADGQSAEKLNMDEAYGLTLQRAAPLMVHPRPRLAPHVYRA

On to `O=C1c2c(O)cc(O)cc2OC(c2ccc(O)cc2)C1O` (racemic) [Dihydrokaempferol], for which, where the note is “racemic substrate, read-out: Dihydrokaempferol”, the Km was determined as 143.6 ± 0.69 µM. As to `O=C1CC(c2ccc(O)cc2)Oc2cc(O)cc(O)c21` (racemic) [Naringenin], the Km (racemic substrate, read-out: Naringenin) is 17.1 ± 0.46 µM. For `O=c1c(O)c(-c2ccc(O)cc2)oc2cc(O)cc(O)c12` [Kaempferol], the Km (read-out: Kaempferol) stood at 68.06 ± 0.43 µM.

Source of the values: PMC4783990, “Cloning and Characterization of a Flavonoid 3′-Hydroxylase Gene from Tea Plant (Camellia sinensis)” (International Journal of Molecular Sciences, 2016).
